Measurements: US20200148646A1, “6-S[…] 7-S[…] ANALOGS AND THE USE THEREOF” (Purdue Pharma, L.P., priority 2013, published 2020)

Tests used:
human κ opioid receptor [1] = molecular target: T1, human κ opioid receptor (Homo sapiens, UniProt P41145); experiment: κ-opioid receptor [35S]GTPγS functional assay, U-2 OS cells; assay type: biochemical; parameters: expressed in transfected cells; host or cells: U-2 OS cells (in-house membranes); settings: for Emax: U2-OS cells, relative to U69,593
Summary of the method: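 Membranes from U-2 OS cells expressing human κ receptor (0.026 μg/μl protein) were incubated with agonist, 10 μg/mL saponin, 3 μM GDP and 0.20 nM [35S]GTPγS in pH 7.4 HEPES buffer for 30 min at about 25 °C. Bound radioactivity was measured after filtration. EC50 was taken at half-maximal response; Emax is relative to U69,593.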

μ-opioid receptor [2] = molecular target: T2, μ-opioid receptor (Homo sapiens, UniProt P35372); experiment: μ-opioid receptor [35S]GTPγS functional assay, HEK-293 or CHO cells; assay type: biochemical; settings: for Emax: HEK-293 or CHO cells, relative to DAMGO
T2 sequence (P35372 whole entry, species assumed): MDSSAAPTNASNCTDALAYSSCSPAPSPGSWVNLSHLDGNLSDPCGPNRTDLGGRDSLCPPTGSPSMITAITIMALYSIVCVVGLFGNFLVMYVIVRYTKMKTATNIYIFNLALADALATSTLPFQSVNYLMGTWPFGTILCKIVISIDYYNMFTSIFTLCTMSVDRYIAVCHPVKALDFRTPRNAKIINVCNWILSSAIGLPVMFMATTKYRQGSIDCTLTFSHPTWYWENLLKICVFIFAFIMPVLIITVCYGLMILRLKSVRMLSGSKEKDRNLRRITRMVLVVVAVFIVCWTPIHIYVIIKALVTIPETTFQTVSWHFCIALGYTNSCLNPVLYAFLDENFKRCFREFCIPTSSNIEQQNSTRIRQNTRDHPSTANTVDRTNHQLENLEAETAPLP
Description: [^35S]GTPγS functional assays were conducted using freshly thawed μ-receptor membranes prepared in-house from a cell line expressing recombinant opioid receptor in a HEK-293, CHO or U-2 OS cell background, or purchased from a commercial source (Perkin Elmer, Shelton, Conn.; or DiscovRx, Fremont, Calif.). Assay reactions were prepared by sequentially adding the following reagents to binding buffer (100 mM NaCl, 10 mM MgCl2, 20 mM HEPES, pH 7.4) on ice (final concentrations indicated): membrane protein (0.026 mg/mL), saponin ([…]), GDP ([…]) and [^35S]GTPγS (0.20 nM; Perkin Elmer, Shelton, Conn.). The prepared membrane solution (190 l/well) was transferred to 96-shallow well polypropylene plates containing 10 μl of 20× concentrated stock solutions of the agonist [D-Ala^2, N-methyl-Phe^4 Gly-ol^5]-enkephalin (DAMGO) prepared in dimethyl sulfoxide (DMSO). Plates were incubated for 30 min at about 25° C. with shaking. Reactions were terminated by rapid filtration onto 96-well Unifilter GF/B filter plates (Perkin Elmer, Shelton, Conn.) using a 96-well tissue harvester (Perkin Elmer, Shelton, Conn.) followed by three filtration washes with 200 μl of ice-cold wash buffer (10 mM NaH2PO4, 10 mM Na2HPO4, pH 7.4). Filter plates were subsequently dried at 50° C. for 2-3 hr. BetaScint scintillation cocktail (Perkin Elmer, Shelton, Conn.) was added (50 μl/well) and plates were counted using a Packard Top-Count for 1 min/well. Data were analyzed using the sigmoidal dose-response curve fitting functions in GraphPad PRISM v. 3.0, or an in-house function for non-linear, sigmoidal dose-response curve-fitting.
μ GTP EC50 is the concentration of a compound providing 50% of the maximal response for the compound at a μ-opioid receptor.
μ GTP Emax (%) is the maximal effect elicited by a compound relative to the effect elicited by DAMGO, a standard agonist. Generally, the μ GTP Emax (%) value measures the efficacy of a compound to treat or prevent pain or other Conditions.
In TABLE 2, activity response of certain Compounds of the Invention at the μ- and κ-opioid receptors using HEK-293 or CHO cells was determined as described above for functional assays.

human κ opioid receptor [3] = molecular target: T1, human κ opioid receptor; experiment: κ-opioid receptor radioligand ([3H]-U69,593) dose-displacement binding assay, HEK-293 or CHO cells; parameters: expressed in transfected cells; host or cells: HEK-293 cells (in-house prep)
Description: Membranes from recombinant HEK-293 cells expressing the human K opioid receptor (cloned in house) were prepared by lysing cells in ice cold hypotonic buffer (2.5 mM MgCl2, 50 mM HEPES, pH 7.4) (10 mL/10 cm dish) followed by homogenization with a tissue grinder/Teflon pestle. Membranes were collected by centrifugation at 30,000×g for 15 min at 4° C. and pellets were resuspended in hypotonic buffer to a final concentration of 1-3 mg/mL. Protein concentrations were determined using the BioRad protein assay reagent with bovine serum albumen as standard. Aliquots of κ receptor membranes were stored at −80° C.
Radioligand dose displacement assays used 0.4 nM [^3H]-U69,593 (GE Healthcare, Piscataway, N.J.; 40 Ci/mmole) with 15 μg membrane protein (recombinant K opioid receptor expressed in HEK 293 cells; in-house prep) in a final volume of 200 μl binding buffer (5% DMSO, 50 mM Trizma base, pH 7.4). Non-specific binding was determined in the presence of 10 μM unlabeled naloxone or U69,593. All reactions were performed in 96-well polypropylene plates for 1 hr at a temperature of about 25° C. Binding reactions were terminated by rapid filtration onto 96-well Unifilter GF/C filter plates (Perkin Elmer, Shelton, Conn.) presoaked in 0.5% polyethylenimine (Sigma). Harvesting was performed using a 96-well tissue harvester (Perkin Elmer, Shelton, Conn.) followed by five filtration washes with 200 μl ice-cold binding buffer. Filter plates were subsequently dried at 50° C. for 1-2 hours. Fifty μl/well scintillation cocktail (Perkin Elmer, Shelton, Conn.) was added and plates were counted in a Packard Top-Count for 1 min/well.
(§1) In TABLE 1, binding affinity of certain Compounds of the Invention to the μ-, and κ-opioid receptors in HEK-293 or CHO cells was determined as described above.

μ-opioid receptor [4] = molecular target: T2, μ-opioid receptor; experiment: μ-opioid receptor [35S]GTPγS functional assay, U-2 OS cells; assay type: biochemical; parameters: host or cells: U-2 OS cells; settings: for Emax: U2-OS cells, relative to DAMGO
Summary of the method: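 U-2 OS membranes expressing recombinant human μ-receptor (0.026 mg/mL) were incubated with compound, […], saponin and [35S]GTPγS 0.20 nM in HEPES/NaCl/MgCl2 buffer pH 7.4 for 30 min at about 25° C. Filter-bound radioactivity gave sigmoidal fits for EC50; Emax is relative to DAMGO.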

μ-opioid receptor [5] = molecular target: T2, μ-opioid receptor; experiment: μ-opioid receptor radioligand ([3H]-diprenorphine) dose-displacement binding assay, HEK-293 or CHO cells
Description: Radioligand dose-displacement binding assays for μ-opioid receptors used 0.3 nM [^3H]-diprenorphine (Perkin Elmer, Shelton, Conn.), with […] membrane protein/well in a final volume of 500 μl binding buffer (10 mM MgCl2, 1 mM EDTA, 5% DMSO, 50 mM HEPES, pH 7.4). Reactions were carried out in the absence or presence of increasing concentrations of unlabeled naloxone. All reactions were conducted in 96-deep well polypropylene plates for 2 hr at room temperature. Binding reactions were terminated by rapid filtration onto 96-well Unifilter GF/C filter plates (Perkin Elmer, Shelton, Conn.), presoaked in 0.5% polyethylenimine using a 96-well tissue harvester (Perkin Elmer, Shelton, Conn.) followed by performing three filtration washes with 500 μl of ice-cold binding buffer. Filter plates were subsequently dried at 50° C. for 2-3 hours. BetaScint scintillation cocktail (Perkin Elmer, Shelton, Conn.) was added (50 l/well), and plates were counted using a Packard Top-Count for 1 min/well. The data were analyzed using the one-site competition curve fitting functions in GraphPad PRISM™ v. 3.0 or higher (San Diego, Calif.), or an in-house function for one-site competition curve-fitting.
as §1

T1 sequence (P41145 whole entry): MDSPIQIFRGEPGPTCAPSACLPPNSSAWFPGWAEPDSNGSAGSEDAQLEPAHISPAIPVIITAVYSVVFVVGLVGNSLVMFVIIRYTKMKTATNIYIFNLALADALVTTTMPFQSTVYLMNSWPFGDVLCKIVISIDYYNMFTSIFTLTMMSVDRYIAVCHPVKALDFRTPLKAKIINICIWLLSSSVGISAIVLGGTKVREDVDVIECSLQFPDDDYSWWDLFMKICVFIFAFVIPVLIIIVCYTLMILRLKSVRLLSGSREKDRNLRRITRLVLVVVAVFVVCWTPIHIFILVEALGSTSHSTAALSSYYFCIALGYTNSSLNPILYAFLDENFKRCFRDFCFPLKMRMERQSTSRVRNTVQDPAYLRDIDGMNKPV

| Compound | EC50 (human κ opioid receptor [1]) | Emax (human κ opioid receptor [1]) | EC50 (μ-opioid receptor [2]) | Emax (μ-opioid receptor [2]) | Ki (human κ opioid receptor [3]) | EC50 (μ-opioid receptor [4]) | Emax (μ-opioid receptor [4]) | Ki (μ-opioid receptor [5]) |
| --- | --- | --- | --- | --- | --- | --- | --- | --- |
| N=C(N)NCCCN[C@@H]1CC[C@@]2(O)[C@H]3Cc4ccc(O)cc4[C@@]2(CCN3CC2CC2)C1 [Compound 15, 1-(3-(((4bR,6R,8aS,9R)-11-(cyclopropylmethyl)-3,8a-dihydroxy-6,7,8,8a,9,10-hexahydro-5H-9,4b-(epiminoethano)phenanthren-6-yl)amino)propyl)guanidine] | 12.8 ± 1.3 nM | 108 ± 2.65% | 1110 ± 447 nM | 11.3 ± 0.33% | 0.53 ± 0.13 nM | 41.5 ± 8.55 nM | 76.3 ± 3.38% | 54.1 ± 10.1 nM |
| COc1ccc2c(c1)[C@]13CCN(CC4CC4)[C@H](C2)[C@]1(O)C[C@H](C)[C@H](O)C3 [Compound 3, (4bR,6R,7S,8aS,9R)-11-(cyclopropylmethyl)-3-methoxy-7-methyl-5,6,7,8,9,10-hexahydro-8aH-9,4b-(epiminoethano)phenanthrene-6,8a-diol] | – | – | 2750 nM | 58.7 ± 4.18% | 3010 ± 339 nM | – | – | 6140 ± 963 nM |
| NCCN[C@@H]1CC[C@@]2(O)[C@H]3Cc4ccc(O)cc4[C@@]2(CCN3CC2CC2)C1 [Compound 11, (4bR,6R,8aS,9R)-6-((2-aminoethyl)amino)-11-(cyclopropylmethyl)-5,6,7,8,9,10-hexahydro-8aH-9,4b-(epiminoethano)phenanthrene-3,8a-diol] | 2.75 ± 0.48 nM | 119 ± 0.58% | > 20000 nM | 6.33 ± 1.67% | 0.29 ± 0.049 nM | 37.9 ± 12 nM | 70 ± 8.08% | 71 ± 28.1 nM |
| N=C(N)NCCN[C@@H]1CC[C@@]2(O)[C@H]3Cc4ccc(O)cc4[C@@]2(CCN3CC2CC2)C1 [Compound 12, 1-(2-(((4bR,6R,8aS,9R)-11-(cyclopropylmethyl)-3,8a-dihydroxy-6,7,8,8a,9,10-hexahydro-5H-9,4b-(epiminoethano)phenanthren-6-yl)amino)ethyl)guanidine] | 5.06 ± 0.29 nM | 105 ± 1.76% | > 20000 nM | 5.33 ± 0.88% | 0.29 ± 0.13 nM | 32.7 ± 2.82 nM | 64.7 ± 5.17% | 53.2 ± 8.9 nM |
| N=C(N)NCCCC(=O)N[C@@H]1CC[C@@]2(O)[C@H]3Cc4ccc(O)cc4[C@@]2(CCN3CC2CC2)C1 [Compound 22, N-((4bR,6R,8aS,9R)-11-(cyclopropylmethyl)-3,8a-dihydroxy-6,7,8,8a,9,10-hexahydro-5H-9,4b-(epiminoethano)phenanthren-6-yl)-4-guanidinobutanamide] | 27.1 ± 4.18 nM | 107 ± 2.33% | > 20000 nM | 5 ± 1.53% | 1.85 ± 0.22 nM | 247 ± 25.5 nM | 60 ± 5.51% | 251 ± 29.4 nM |
| N=C(N)NCC(=O)N[C@@H]1CC[C@@]2(O)[C@H]3Cc4ccc(O)cc4[C@@]2(CCN3CC2CC2)C1 [Compound 20, N-((4bR,6R,8aS,9R)-11-(cyclopropylmethyl)-3,8a-dihydroxy-6,7,8,8a,9,10-hexahydro-5H-9,4b-(epiminoethano)phenanthren-6-yl)-2-guanidinoacetamide] | 62.3 ± 2.37 nM | 111 ± 2.4% | > 20000 nM | 7.33 ± 0.88% | 3.23 ± 0.7 nM | 394 ± 57.8 nM | 62.7 ± 4.26% | 449 ± 53.5 nM |
| N=C(N)NCCCCN[C@@H]1CC[C@@]2(O)[C@H]3Cc4ccc(O)cc4[C@@]2(CCN3CC2CC2)C1 [Compound 16, 1-(4-(((4bR,6R,8aS,9R)-11-(cyclopropylmethyl)-3,8a-dihydroxy-6,7,8,8a,9,10-hexahydro-5H-9,4b-(epiminoethano)phenanthren-6-yl)amino)butyl)guanidine] | 15 ± 1.15 nM | 105 ± 2.89% | 811 ± 442 nM | 9 ± 0.58% | 0.48 ± 0.055 nM | 53.7 ± 11.5 nM | 78 ± 3.61% | 70.5 ± 13.8 nM |
| COc1ccc2c(c1)[C@]13CCN(CC4CC4)[C@H](C2)[C@]1(O)C[C@H](CO)[C@H](O)C3 [Compound 7, (4bR,6R,7R,8aS,9R)-11-(cyclopropylmethyl)-7-(hydroxymethyl)-3-methoxy-5,6,7,8,9,10-hexahydro-8aH-9,4b-(epiminoethano)phenanthrene-6,8a-diol] | – | – | 4910 nM | 53.7 ± 4.37% | 7300 ± 1640 nM | – | – | 10800 ± 843 nM |
| N=C(N)NCCC(=O)N[C@@H]1CC[C@@]2(O)[C@H]3Cc4ccc(O)cc4[C@@]2(CCN3CC2CC2)C1 [Compound 21, N-((4bR,6R,8aS,9R)-11-(cyclopropylmethyl)-3,8a-dihydroxy-6,7,8,8a,9,10-hexahydro-5H-9,4b-(epiminoethano)phenanthren-6-yl)-3-guanidinopropanamide] | 120 ± 2.94 nM | 105.3 ± 0.88% | – | – | 4.61 ± 1.05 nM | – | – | 1010 ± 221 nM |
| N=C(N)Nc1ccc(N[C@@H]2CC[C@@]3(O)[C@H]4Cc5ccc(O)cc5[C@@]3(CCN4CC3CC3)C2)cc1 [Compound 24, 1-(4-(((4bR,6R,8aS,9R)-11-(cyclopropylmethyl)-3,8a-dihydroxy-6,7,8,8a,9,10-hexahydro-5H-9,4b-(epiminoethano)phenanthren-6-yl)amino)phenyl)guanidine] | 2.91 ± 0.18 nM | 104 ± 4.04% | > 20000 nM | 4.33 ± 1.45% | 0.24 ± 0.021 nM | 8.14 ± 0.94 nM | 55.3 ± 2.91% | 8.42 ± 2.88 nM |
| NCCCN[C@@H]1CC[C@@]2(O)[C@H]3Cc4ccc(O)cc4[C@@]2(CCN3CC2CC2)C1 [Compound 13, (4bR,6R,8aS,9R)-6-((3-aminopropyl)amino)-11-(cyclopropylmethyl)-5,6,7,8,9,10-hexahydro-8aH-9,4b-(epiminoethano)phenanthrene-3,8a-diol] | 2.13 ± 0.41 nM | 117 ± 1.86% | – | – | 0.51 ± 0.073 nM | 38.9 ± 4.9 nM | 66.3 ± 5.78% | 80 ± 27.1 nM |
